Test results published in article PMC10504751, “Chalcone/1,3,4-Oxadiazole/Benzimidazole hybrids as novel anti-proliferative agents inducing apoptosis and inhibiting EGFR & BRAFV^600E” (BMC Chemistry, 2023).

Columns and labels:
Test in all cases: NCI one-dose SRB anti-proliferative screen
Format in all cases: cell-based
[1] = system: OVCAR-5; conditions: Homo sapiens; OVCAR-5 (Ovarian Cancer), NCI one dose 10 µM; read-out: Cell growth inhibition %
Outline: (§1)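 Single 10 µM dose tested by NCI in its 60-cell-line panel covering nine tumour subpanels. Anti-proliferative activity was read by Sulforhodamine B colorimetric staining.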

[2] = system: LOX IMVI; conditions: Homo sapiens, LOX IMIV (Melanoma), NCI one dose 10 µM, read-out: Cell growth inhibition %
Outline: as §1

[3] = system: RPMI-8226; conditions: Homo sapiens; RPMI-8226 (Leukemia), NCI one dose 10 µM; read-out: Cell growth inhibition %
Outline: as §1

[4] = system: MDA-MB-468; conditions: Homo sapiens; MDA-MB-468 (Breast Cancer), NCI one dose 10 µM; read-out: Cell growth inhibition %
Outline: as §1

[5] = system: TK-10; conditions: Homo sapiens; TK-10 (Renal Cancer), NCI one dose 10 µM; read-out: Cell growth inhibition %
Outline: as §1

[6] = system: SK-MEL-28; conditions: Homo sapiens; SK-MEL-28 (Melanoma), NCI one dose 10 µM; read-out: Cell growth inhibition %
Outline: as §1

[7] = system: OVCAR-3; conditions: Homo sapiens; OVCAR-3 (Ovarian Cancer), NCI one dose 10 µM; read-out: Cell growth inhibition %
Outline: as §1

[8] = system: CAKI-1; conditions: Homo sapiens; CAKI-1 (Renal Cancer), NCI one dose 10 µM; read-out: Cell growth inhibition %
Outline: as §1

[9] = system: SK-MEL-2; conditions: Homo sapiens; SK-MEL-2 (Melanoma), NCI one dose 10 µM; read-out: Cell growth inhibition %
Outline: as §1

[10] = system: 786-0; conditions: Homo sapiens; 786-0 (Renal Cancer), NCI one dose 10 µM; read-out: Cell growth inhibition %
Outline: as §1

[11] = system: A498; conditions: Homo sapiens; A498 (Renal Cancer), NCI one dose 10 µM; read-out: Cell growth inhibition %
Outline: as §1

[12] = system: OVCAR-8; conditions: Homo sapiens; OVCAR-8 (Ovarian Cancer), NCI one dose 10 µM; read-out: Cell growth inhibition %
Outline: as §1

[13] = system: MDA-MB-435; conditions: Homo sapiens; MDA-MB-435 (Melanoma), NCI one dose 10 µM; read-out: Cell growth inhibition %
Outline: as §1

[14] = system: PC-3; conditions: Homo sapiens; PC-3 (Prostate Cancer), NCI one dose 10 µM; read-out: Cell growth inhibition %
Outline: as §1

[15] = system: NCI-H460; conditions: Homo sapiens; NCI-H460 (Non-Small Cell Lung Cancer), NCI one dose 10 µM; read-out: Cell growth inhibition %
Outline: as §1

[16] = system: SF-268; conditions: Homo sapiens; SF-268 (CNS Cancer), NCI one dose 10 µM; read-out: Cell growth inhibition %
Outline: as §1

[17] = system: MDA-MB-231/ATCC; conditions: Homo sapiens; MDA-MB-231/ATCC (Breast Cancer), NCI one dose 10 µM; read-out: Cell growth inhibition %
Outline: as §1

[18] = system: SW-620; conditions: Homo sapiens; SW-620 (Colon Cancer), NCI one dose 10 µM; read-out: Cell growth inhibition %
Outline: as §1

[19] = system: IGROV1; conditions: Homo sapiens, IGROV-1; IGROV1 (Ovarian Cancer), NCI one dose 10 µM; read-out: Cell growth inhibition %
Outline: as §1

[20] = system: UO-31; conditions: Homo sapiens; UO-31 (Renal Cancer), NCI one dose 10 µM; read-out: Cell growth inhibition %
Outline: as §1

[21] = system: BT-549; conditions: Homo sapiens; BT-549 (Breast Cancer), NCI one dose 10 µM; read-out: Cell growth inhibition %
Outline: as §1

[22] = system: KM12; conditions: Homo sapiens; KM12 (Colon Cancer), NCI one dose 10 µM; read-out: Cell growth inhibition %
Outline: as §1

[23] = system: HS 578T; conditions: Homo sapiens; HS 578T (Breast Cancer), NCI one dose 10 µM; read-out: Cell growth inhibition %
Outline: as §1

[24] = system: HOP-92; conditions: Homo sapiens; HOP-92 (Non-Small Cell Lung Cancer), NCI one dose 10 µM; read-out: Cell growth inhibition %
Outline: as §1

[25] = system: SF-539; conditions: Homo sapiens; SF-539 (CNS Cancer), NCI one dose 10 µM; read-out: Cell growth inhibition %
Outline: as §1

[26] = system: HL-60(TB); conditions: Homo sapiens; HL-60(TB) (Leukemia), NCI one dose 10 µM; read-out: Cell growth inhibition %
Outline: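 Activity reflects a single-point exposure at 10 µM, with cell mass determined by a sulforhodamine B dye assay.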

[27] = system: DU-145; conditions: Homo sapiens; DU-145 (Prostate Cancer), NCI one dose 10 µM; read-out: Cell growth inhibition %
Outline: as §1

[28] = system: MCF7; conditions: Homo sapiens; MCF7 (Breast Cancer), NCI one dose 10 µM; read-out: Cell growth inhibition %
Outline: as §1

[29] = system: HT29; conditions: Homo sapiens, HT-29; HT29 (Colon Cancer), NCI one dose 10 µM; read-out: Cell growth inhibition %
Outline: as §1

[30] = system: ACHN; conditions: Homo sapiens; ACHN (Renal Cancer), NCI one dose 10 µM; read-out: Cell growth inhibition %
Outline: as §1

[31] = system: NCI/ADR-RES; conditions: Homo sapiens; NCI/ADR-RES (Ovarian Cancer), NCI one dose 10 µM; read-out: Cell growth inhibition %
Outline: as §1

[32] = system: SR; conditions: Homo sapiens; SR (Leukemia), NCI one dose 10 µM; read-out: Cell growth inhibition %
Outline: as §1

| Compound | inhibition at 10 µM [1] [%] | inhibition at 10 µM [2] [%] | inhibition at 10 µM [3] [%] | inhibition at 10 µM [4] [%] | inhibition at 10 µM [5] [%] | inhibition at 10 µM [6] [%] | inhibition at 10 µM [7] [%] | inhibition at 10 µM [8] [%] | inhibition at 10 µM [9] [%] | inhibition at 10 µM [10] [%] | inhibition at 10 µM [11] [%] | inhibition at 10 µM [12] [%] | inhibition at 10 µM [13] [%] | inhibition at 10 µM [14] [%] | inhibition at 10 µM [15] [%] | inhibition at 10 µM [16] [%] | inhibition at 10 µM [17] [%] | inhibition at 10 µM [18] [%] | inhibition at 10 µM [19] [%] | inhibition at 10 µM [20] [%] | also measured |
| --- | --- | --- | --- | --- | --- | --- | --- | --- | --- | --- | --- | --- | --- | --- | --- | --- | --- | --- | --- | --- | --- |
| COc1cc(-c2nc3cc(-c4nnc(SCC(=O)Nc5ccc(C(=O)/C=C/c6ccccc6)cc5)o4)ccc3[nH]2)cc(OC)c1OC [Compound 7u, 2-{5-[2-(3,4,5-Trimethoxyphenyl)-1 H-benzo[d]imidazol-5-yl]-1,3,4-oxadiazol-2-ylthio}-N-{4-[(E)-3-phenylacryloyl]phenyl}acetamide] | 0 | 22 | 24.2 | 0 | 0 | 0 | 0 | 0 | 0 | 0 | 0 | 10.6 | 6.83 | 9.18 | 0 | 0 | 4.05 | 0 | 29 | 21 | inhibition at 10 µM [21]: 28.9%; inhibition at 10 µM [22]: 0.98%; inhibition at 10 µM [23]: 9.37%; inhibition at 10 µM [24]: 9.74%; inhibition at 10 µM [25]: 13.3%; inhibition at 10 µM [26]: 5.25%; inhibition at 10 µM [27]: 0%; inhibition at 10 µM [28]: 44.7%; inhibition at 10 µM [29]: 0%; inhibition at 10 µM [30]: 1.08%; inhibition at 10 µM [31]: 0%; inhibition at 10 µM [32]: 40.3% |
| COc1cc(-c2nc3cc(-c4nnc(SCC(=O)Nc5ccc(C(=O)/C=C/c6ccc(Cl)cc6)cc5)o4)ccc3[nH]2)cc(OC)c1OC [Compound 7v, 2-{5-[2-(3,4,5-Trimethoxyphenyl)-1 H-benzo[d]imidazol-5-yl]-1,3,4-oxadiazol-2-ylthio}-N-{4-[(E)-3-(4-chlorophenyl)acryloyl]phenyl}acetamide] | 0.76 | 132 | 42.8 | 6.96 | 0 | 0 | 2.13 | 2.81 | 0 | 9.2 | 16.8 | 7.52 | 1.02 | 4.91 | 0 | 0.81 | 8.4 | 0 | 18.4 | 16 | inhibition at 10 µM [21]: 15.6%; inhibition at 10 µM [22]: 9.06%; inhibition at 10 µM [23]: 12.1%; inhibition at 10 µM [24]: 17.8%; inhibition at 10 µM [25]: 25.3%; inhibition at 10 µM [26]: 7.46%; inhibition at 10 µM [27]: 0%; inhibition at 10 µM [28]: 40.9%; inhibition at 10 µM [29]: 0%; inhibition at 10 µM [30]: 3.22%; inhibition at 10 µM [31]: 0%; inhibition at 10 µM [32]: 39.6% |
